Assay results published in the NIST ThermoML archive (doi:10.1016/j.fluid.2017.10.034).
Numbers after ± are expanded uncertainties.

Assay: xn = mol fraction of the nth substance listed
Conditions: Liquid, Vibrating tube method

[Cl-].[Cs+] [cesium chloride] + CO
mass density [kg/m3]
Conditions | 288.15 K | 293.15 K | 298.15 K | 308.15 K | 318.15 K
x1 = 0.0012 | 800.8 ± 0.8 | 796.1 ± 0.8 | 791.3 ± 0.8 | 781.8 ± 0.8 | 772.3 ± 0.8
x1 = 0.0025 | 805.5 ± 0.8 | 800.8 ± 0.8 | 796 ± 0.8 | 786.5 ± 0.8 | 776.9 ± 0.8
x1 = 0.0037 | 809.9 ± 0.8 | 805.2 ± 0.8 | 800.5 ± 0.8 | 791 ± 0.8 | 781.4 ± 0.8
x1 = 0.0049 | 814.5 ± 0.8 | 809.8 ± 0.8 | 805.1 ± 0.8 | 795.5 ± 0.8 | 785.9 ± 0.8

[Cl-].[Cs+] [cesium chloride] + O
mass density [kg/m3]
Conditions | x1 = 0.0099 | x1 = 0.0196 | x1 = 0.0292 | x1 = 0.0385 | x1 = 0.0536 | x1 = 0.069
288.15 K | 1069.7 ± 1.4 | 1137.3 ± 2.8 | 1203.3 ± 2.7 | 1266.2 ± 4 | 1367 ± 9.2 | 1466.9 ± 12
293.15 K | 1068.4 ± 1.4 | 1135.8 ± 2.8 | 1201.6 ± 2.7 | 1264.2 ± 4 | 1364.6 ± 9.2 | 1464.1 ± 12
298.15 K | 1067 ± 1.4 | 1134.1 ± 2.8 | 1199.6 ± 2.7 | 1262 ± 4 | 1362.1 ± 9.2 | 1461.3 ± 12
308.15 K | 1063.5 ± 1.4 | 1130.1 ± 2.7 | 1195.2 ± 2.7 | 1257.3 ± 4 | 1356.7 ± 9.1 | 1455.3 ± 12
318.15 K | 1059.2 ± 1.4 | 1125.5 ± 2.7 | 1190.2 ± 2.7 | 1252 ± 4 | 1350.9 ± 9 | 1448.6 ± 11

[Cl-].[Na+] [sodium chloride] + CO
mass density [kg/m3]
Conditions | x1 = 0.001 | x1 = 0.002 | x1 = 0.003 | x1 = 0.004 | x1 = 0.005 | x1 = 0.006 | x1 = 0.007
288.15 K | 797.4 ± 0.4 | 798.9 ± 0.4 | 800.1 ± 0.4 | 801.4 ± 0.4 | 802.9 ± 0.4 | 804.1 ± 0.4 | 805.7 ± 0.4
293.15 K | 792.7 ± 0.4 | 794.3 ± 0.4 | 795.5 ± 0.4 | 796.8 ± 0.4 | 798.3 ± 0.4 | 799.5 ± 0.4 | 801.1 ± 0.4
298.15 K | 788 ± 0.4 | 789.6 ± 0.4 | 790.8 ± 0.4 | 792.1 ± 0.4 | 793.7 ± 0.4 | 794.9 ± 0.4 | 796.4 ± 0.4
308.15 K | 778.6 ± 0.4 | 780.2 ± 0.4 | 781.4 ± 0.4 | 782.7 ± 0.4 | 784.3 ± 0.4 | 785.5 ± 0.4 | 787.1 ± 0.4
318.15 K | 769 ± 0.5 | 770.7 ± 0.4 | 771.9 ± 0.4 | 773.3 ± 0.4 | 774.8 ± 0.4 | 776.1 ± 0.4 | 777.7 ± 0.4

[Cl-].[Na+] [sodium chloride] + O
mass density [kg/m3]
Conditions | x1 = 0.0099 | x1 = 0.0196 | x1 = 0.0291 | x1 = 0.0385 | x1 = 0.0476 | x1 = 0.0566 | x1 = 0.0654
288.15 K | 1022.2 ± 0.5 | 1044.7 ± 0.9 | 1065.8 ± 0.9 | 1086.7 ± 1.4 | 1107.4 ± 1.4 | 1127.2 ± 1.8 | 1147.1 ± 1.8
293.15 K | 1021 ± 0.5 | 1043.2 ± 0.9 | 1064.1 ± 0.9 | 1084.8 ± 1.4 | 1105.4 ± 1.4 | 1125 ± 1.8 | 1144.8 ± 1.8
298.15 K | – | 1041.6 ± 0.9 | 1062.3 ± 0.9 | 1082.8 ± 1.3 | 1103.3 ± 1.3 | 1122.7 ± 1.8 | 1142.4 ± 1.8
308.15 K | 1016.2 ± 0.5 | 1037.8 ± 0.9 | 1058.2 ± 0.9 | 1078.5 ± 1.3 | 1098.7 ± 1.3 | 1118 ± 1.8 | 1137.4 ± 1.8
318.15 K | 1012.1 ± 0.5 | 1033.5 ± 0.9 | 1053.6 ± 0.9 | 1073.7 ± 1.3 | 1093.8 ± 1.3 | 1112.9 ± 1.7 | 1132.2 ± 1.8
